Reference: US6503945B2, “Cationic amphiphiles containing N-hydroxyalkyl group for intracellular delivery of biologically active molecules” (Council of Scientific & Industrial Research, priority 1909, dated 2003)

Tested on: COS-1 cells
Test: Cell transfection assay (β-galactosidase reporter gene activity)
Type: cell-based, African green monkey
Conditions: compared to Lipofectamine
Method: Separate 1 mole (80 l of a 0.0126 M stock solution in chloroform) of N,N-di-n-hexadecyl-N,N-dihydroxyethylammonium bromide (DHDEAB) and 1 mole of the neutral colipid cholesterol (40 l of a 0.0255 M stock solution in chloroform) were combined in a glass vial. The solvent was evaporated initially by a thin flow of moisture free nitrogen and then under high flow for two minutes and then further dried under vacuum (1 mm Hg) for 6 hours.
The dried lipid film was then hydrated with sterile deionized water (1 ml) overnight (9-10 hours) in room temperature to produce a dispersed suspension. The hydrated mixture was then vortexed for 1 minute and was sonicated in a probe sonicator at a constant 25 W sonic power for 5 minutes. The concentrations of both DHDEAB and cholesterol in the resulting solution obtained after sonication was 1 mM. […]
For protein estimation, the resultant medium was removed from the plates and the cells were washed with PBS- Lysis buffer (1001 containing 250 mM Tris.HCl, pH 8.0, 0.5% NP40) was added and the cells were lysed for 30 minutes. […] The plates were read in an Elisa reader (Molecular Devices, Vmax) with a 650 nm filter. […]
The level of galactosidase activity in a 501 lysate was measured by adding to 501 of 2× gal mixture containing 1.33 mg/ml o-nitrophenyl--D-galactopyranoside (Sigma N1127), 200 mM sodium phosphate pH 7.15 and […]. […]

| Compound | in vitro transfection efficiencies |
| --- | --- |
| CCCCCCCCCCCCCCCC[N+](CCO)(CCO)CCCCCCCCCCCCCCCC [amphiphile No. 1, N,N-di-n-hexadecyl-N, N-dihydroxyethylammonium bromide] | enhanced |
| N,N,-di[O-hexadecanoyl]hydroxyethyl-N-hydroxyethyl-N-methylammonium bromide [amphiphile No. 5] | enhanced |
